Calls of active or inactive are those of the source. The rule behind the calls is not given here.
Tests used:
Acetylcholinesterase [1] = biological target: T1, Acetylcholinesterase (Electrophorus electricus, UniProt O42275)
Description: Inhibition of electric eel AChE using acetylthiocholine iodide as substrate preincubated for 15 mins followed by substrate addition measured after 20 mins by Ellman's method

Cholinesterase [2] = biological target: T2, Cholinesterase (Equus caballus, UniProt P81908)
Description: Inhibition of equine serum BuChE using butyrylthiocholine iodide as substrate preincubated for 15 mins followed by substrate addition measured after 20 mins by Ellman's method

[3] = biological target: Acetylcholinesterase (Electrophorus electricus) (UniProt O42275); assay: Potency index, ratio of rivastigmine IC50 to compound IC50 for electric eel AChE
[4] = biological target: Cholinesterase (Equus caballus) (UniProt P81908); assay: Potency index, ratio of rivastigmine IC50 to compound IC50 for equine serum BuChE
Chain of Cholinesterase (Equus caballus) (P81908 whole entry): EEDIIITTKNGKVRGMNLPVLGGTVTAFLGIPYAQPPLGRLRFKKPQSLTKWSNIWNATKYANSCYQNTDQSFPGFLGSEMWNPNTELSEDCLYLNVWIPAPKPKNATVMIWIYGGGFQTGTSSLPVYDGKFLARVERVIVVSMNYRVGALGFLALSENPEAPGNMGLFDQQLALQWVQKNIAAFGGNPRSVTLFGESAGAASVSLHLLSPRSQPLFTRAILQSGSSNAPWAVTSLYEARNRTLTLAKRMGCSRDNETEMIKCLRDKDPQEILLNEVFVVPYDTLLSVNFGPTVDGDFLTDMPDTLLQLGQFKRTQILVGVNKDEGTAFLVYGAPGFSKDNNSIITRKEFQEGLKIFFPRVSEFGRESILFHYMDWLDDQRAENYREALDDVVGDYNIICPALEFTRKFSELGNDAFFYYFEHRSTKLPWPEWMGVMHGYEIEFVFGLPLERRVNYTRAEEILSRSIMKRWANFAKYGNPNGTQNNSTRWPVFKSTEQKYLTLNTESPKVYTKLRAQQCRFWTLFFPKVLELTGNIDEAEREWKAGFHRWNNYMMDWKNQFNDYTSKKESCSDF

MDA-MB-231 = assay: cells; settings: Homo sapiens, MDA-MB-231, 72 h
Description: Cytotoxicity against human MDA-MB-231 cells assessed as reduction in cell viability after 72 hrs by MTT assay

MCF7 = assay: cells; settings: Homo sapiens, MCF7, 72 h
Description: Cytotoxicity against human MCF7 cells assessed as reduction in cell viability after 72 hrs by MTT assay

T47D = assay: cells; settings: Homo sapiens, 72 h
Description: Cytotoxicity against human T47D cells assessed as reduction in cell viability after 72 hrs by MTT assay

[5] = Antioxidant activity assessed as DPPH radical scavenging activity incubated under dark condition for 30 mins by UV-Visible spectrophotometric method; format: functional
Acetylcholinesterase [6] = biological target: T1, Acetylcholinesterase; assay: Mixed-type inhibition of electric eel AChE using acetylthiocholine iodide as substrate preincubated for 15 mins followed by substrate addition measured after 20 mins by Lineweaver-Burk plot analysis
Rattus norvegicus [7] = assay: (§1) Reversal of scopolamine-induced memory impairment in Wistar albino rat assessed as decrease in traveled distance during 4 days training period at 5 to 20 mg/kg, ip administered 60 mins prior to test for 4 consecutive days followed by scopolamine challenge 30 mins prior to test by Morris water maze test; format: functional, organism-based
PC-12 [8] = assay: Neuroprotective activity against H2O2-induced cell death in rat PC12 cells assessed as cell viability at 100 uM preincubated for 3 hrs followed by H2O2 addition measured after 24 hrs by MTT assay relative to control; format: functional; settings: read-out: Activity
PC-12 [9] = assay: Neuroprotective activity against H2O2-induced cell death in rat PC12 cells assessed as cell viability at 50 uM preincubated for 3 hrs followed by H2O2 addition measured after 24 hrs by MTT assay relative to control; format: functional; settings: read-out: Activity
Rattus norvegicus [10] = assay: as §1, with “escape latency time” for “traveled distance”; format: functional, organism-based
Rattus norvegicus [11] = assay: Reversal of scopolamine-induced memory impairment in Wistar albino rat assessed as increase in time spent in target quadrant at 5 to 20 mg/kg, ip administered for 4 consecutive days 60 mins prior to test followed by scopolamine challenge 30 mins prior to test measured on day 5 by Morris water maze test; format: functional, organism-based
PC-12 [12] = assay: Neuroprotective activity against H2O2-induced cell death in rat PC12 cells assessed as cell viability at 10 uM preincubated for 3 hrs followed by H2O2 addition measured after 24 hrs by MTT assay relative to control; format: functional; settings: read-out: Activity
Rattus norvegicus [13] = assay: Reversal of scopolamine-induced memory impairment in Wistar albino rat assessed as change in swimming speed during 4 days training period at 5 to 20 mg/kg, ip administered 60 mins prior to test for 4 consecutive days followed by scopolamine challenge 30 mins prior to test by Morris water maze test; format: functional, organism-based
Cholinesterase [14] = biological target: T2, Cholinesterase; assay: Mixed-type inhibition of equine serum BuChE using butyrylthiocholine iodide as substrate preincubated for 15 mins followed by substrate addition measured after 20 mins by Lineweaver-Burk plot analysis

T1 sequence (O42275 whole entry): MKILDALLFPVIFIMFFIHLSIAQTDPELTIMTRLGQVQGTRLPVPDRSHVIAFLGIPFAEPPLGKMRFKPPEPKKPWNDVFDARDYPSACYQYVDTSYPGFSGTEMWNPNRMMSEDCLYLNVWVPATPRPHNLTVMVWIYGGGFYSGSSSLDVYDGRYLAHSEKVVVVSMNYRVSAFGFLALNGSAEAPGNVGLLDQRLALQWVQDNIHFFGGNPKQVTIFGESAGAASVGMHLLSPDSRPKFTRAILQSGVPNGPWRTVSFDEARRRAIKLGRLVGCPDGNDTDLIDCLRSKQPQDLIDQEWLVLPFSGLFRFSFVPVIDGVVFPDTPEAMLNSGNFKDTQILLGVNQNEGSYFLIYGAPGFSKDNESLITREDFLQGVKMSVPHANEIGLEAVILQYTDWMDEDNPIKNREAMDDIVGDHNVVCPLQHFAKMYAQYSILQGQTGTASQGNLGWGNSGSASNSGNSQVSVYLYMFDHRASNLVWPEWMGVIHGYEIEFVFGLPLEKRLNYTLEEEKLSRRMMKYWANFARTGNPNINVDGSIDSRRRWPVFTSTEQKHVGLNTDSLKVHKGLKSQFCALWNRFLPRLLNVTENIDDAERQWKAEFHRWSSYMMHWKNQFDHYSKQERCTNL
T2 sequence (P81908 whole entry): as the sequence (P81908 whole entry) above
Chain of Acetylcholinesterase (Electrophorus electricus) (O42275 24-633 limits assumed): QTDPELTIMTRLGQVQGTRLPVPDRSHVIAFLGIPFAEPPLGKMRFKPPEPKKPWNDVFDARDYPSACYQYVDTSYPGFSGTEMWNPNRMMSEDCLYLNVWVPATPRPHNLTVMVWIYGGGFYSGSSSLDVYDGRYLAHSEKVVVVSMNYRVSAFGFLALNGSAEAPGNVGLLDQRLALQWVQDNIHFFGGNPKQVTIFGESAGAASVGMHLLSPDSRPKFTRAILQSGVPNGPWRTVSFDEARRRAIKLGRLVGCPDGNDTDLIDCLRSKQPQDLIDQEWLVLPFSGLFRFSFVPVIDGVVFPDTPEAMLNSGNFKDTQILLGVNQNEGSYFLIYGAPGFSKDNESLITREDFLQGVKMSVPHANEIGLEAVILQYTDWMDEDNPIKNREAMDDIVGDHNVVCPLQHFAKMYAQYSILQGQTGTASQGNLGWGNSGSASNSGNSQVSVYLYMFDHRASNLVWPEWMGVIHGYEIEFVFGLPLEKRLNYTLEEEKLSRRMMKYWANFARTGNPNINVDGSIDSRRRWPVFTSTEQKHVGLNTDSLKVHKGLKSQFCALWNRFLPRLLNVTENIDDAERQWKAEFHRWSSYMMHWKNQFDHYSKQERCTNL

Row | Compound | IC50 (Acetylcholinesterase [1]) [nM] | IC50 (Cholinesterase [2]) [nM] | Ratio IC50 [3] | Ratio IC50 [4] | IC50 (MDA-MB-231) [µM] | IC50 (MCF7) [µM] | IC50 (T47D) [µM] | Activity [5] | Ki (Acetylcholinesterase [6]) [nM] | Activity (Rattus norvegicus [7]) | viability at 100 µM (PC-12 [8]) [%] | viability at 50 µM (PC-12 [9]) [%] | Activity (Rattus norvegicus [10]) | Activity (Rattus norvegicus [11]) | viability at 10 µM (PC-12 [12]) [%] | Activity (Rattus norvegicus [13]) | Ki (Cholinesterase [14]) [nM]
1 | COc1ccc(Cn2cc(CNc3c4c(nc5cc(Cl)ccc35)CCCC4)nn2)cc1 | 737 | 115 | 3 to 21 | 2 to 140 |  |  |  |  |  |  |  |  |  |  |  |  | 
2 | Fc1ccc(Cn2cc(CNc3c4c(nc5ccccc35)CCCC4)nn2)cc1 | 2380 | 59 | 3 to 21 | 2 to 140 | > 100 | > 100 | > 100 |  |  |  |  |  |  |  |  |  | 
3 | Clc1ccc(Cn2cc(CNc3c4c(nc5ccccc35)CCCC4)nn2)cc1 | 1970 | 151 | 3 to 21 | 2 to 140 |  |  |  | inactive |  |  |  |  |  |  |  |  | 
4 | Fc1ccc(Cn2cc(CNc3c4c(nc5ccc(Cl)cc35)CCCC4)nn2)cc1 | 1440 | 721 | 3 to 21 | 2 to 140 |  |  |  |  |  |  |  |  |  |  |  |  | 
5 | Cc1ccc(Cn2cc(CNc3c4c(nc5cc(Cl)ccc35)CCCC4)nn2)cc1 | 1110 | 65 | 3 to 21 | 2 to 140 |  |  |  |  |  |  |  |  |  |  |  |  | 
6 | Clc1ccc2c(NCc3cn(Cc4ccccc4)nn3)c3c(nc2c1)CCCC3 | 2320 | 197 | 3 to 21 | 2 to 140 | > 100 | > 100 | 97.3 |  |  |  |  |  |  |  |  |  | 
7 | COc1ccc(Cn2cc(CNc3c4c(nc5ccc(Cl)cc35)CCCC4)nn2)cc1 | 521 | 1850 | 3 to 21 | 2 to 140 | > 100 | > 100 | > 100 | inactive | 940 | Active | 74.8 | 73.5 | Active | Active | 65.4 | inactive | 
8 | Clc1ccc2nc3c(c(NCc4cn(Cc5ccccc5)nn4)c2c1)CCCC3 | 2390 | > 5000 | 3 to 21 | 2 to 140 |  |  |  |  |  |  |  |  |  |  |  |  | 
9 | Clc1ccc(Cn2cc(CNc3c4c(nc5cc(Cl)ccc35)CCCC4)nn2)cc1 | 983 | > 5000 | 3 to 21 | 2 to 140 |  |  |  |  |  |  |  |  |  |  |  |  | 
10 | COc1ccc(Cn2cc(CNc3c4c(nc5ccccc35)CCCC4)nn2)cc1 | 2000 | 55 | 3 to 21 | 2 to 140 | > 100 | > 100 | 94.1 |  |  |  |  |  |  |  |  |  | 121
11 | Fc1ccc(Cn2cc(CNc3c4c(nc5cc(Cl)ccc35)CCCC4)nn2)cc1 | 2280 | 216 | 3 to 21 | 2 to 140 | 83.4 | 87.5 | 80 |  |  |  |  |  |  |  |  |  | 
12 | Cc1ccc(Cn2cc(CNc3c4c(nc5ccccc35)CCCC4)nn2)cc1 | 621 | 72 | 3 to 21 | 2 to 140 |  |  |  |  |  |  |  |  |  |  |  |  | 
13 | c1ccc(Cn2cc(CNc3c4c(nc5ccccc35)CCCC4)nn2)cc1 | 3300 | 180 | 3 to 21 | 2 to 140 | 81.4 | 97.1 | 62.9 |  |  |  |  |  |  |  |  |  | 
14 | Cc1ccc(Cn2cc(CNc3c4c(nc5ccc(Cl)cc35)CCCC4)nn2)cc1 | 768 | 747 | 3 to 21 | 2 to 140 |  |  |  | inactive |  |  |  |  |  |  |  |  | 
15 | Clc1ccc(Cn2cc(CNc3c4c(nc5ccc(Cl)cc35)CCCC4)nn2)cc1 | 1960 | 3940 | 3 to 21 | 2 to 140 |  |  |  |  |  |  |  |  |  |  |  |  | 
